Read-outs that look alike come from different tables or passages of the source.
Experiments:
[1] = Test 9: Toxicity Test (acute oral toxicity, mice); settings: mouse, in vivo, po
Experimental: A predetermined amount of a solution or suspension of a test compound in corn oil was orally administered to male mice having a body weight of 19 to 23 g (0.2 ml per 10 g of the body weight). After 7 days, the number of killed mice was counted and the influences on the mice were examined.

[2] = system: sensitive green rice leafhopper (collected at Chigasaki); assay: whole plant or invertebrate; assay type: in vivo; settings: Nephotettix cincticeps, read-out: Mortality (%), Green Rice Leafhopper Collected at Chigasaki
Experimental: (§1) To a mixture of 20 parts of the compound of the present invention and 20 parts of Sorpol SM-200 (registered tradename for the product supplied by Toho Chemical Industrial Co., Ltd.) was added 60 parts of xylol, and the mixture was suffciently blended. The obtained emulsifiable concentrate was diluted at a predetermined concentration with distilled water, and the obtained dilution was used.
(§2) Seedlings (having 2 to 3 leaves) of paddy rice were hydroponically cultured in a pot having a diameter of 5 cm. A chemical dilution having a concentration of 100 or 20 ppm, prepared in the same manner as described in Test 1, was applied with a sprayer at a rate of 3 ml per pot. The treated seedlings were air-dried and covered with a metal net cylinder, and female adults of resistant green rice leafhopper (collected at Nakagawara) and sensitive green rice leafhopper (collected at Chigasaki) were set, respectively, free in the pot at a density of 10 adults per pot. After 24 hours, the numbers of killed and living adults were counted and the mortality was calculated. The test was made on three pots and the average value was calculated.

[3] = system: resistant green rice leafhopper (collected at Nakagawara); assay: Test 3: Effect on Resistant Green Rice Leafhopper (collected at Nakagawara); assay type: in vivo, Nephotettix cincticeps Uhler (Green rice leafhopper); settings: Nephotettix cincticeps, 24 h, read-out: Mortality (%), Green Rice Leafhopper Collected at Nakagawara
Experimental: as §1, §2

tobacco cutworm = assay: Test 1: Effect on Tobacco Cutworm (leaf immersion), mortality after 24 hours; assay type: in vivo; settings: second-instar larvae, 25° C
Experimental: as §1
An emulsifiable concentrate of a test compound prepared according to the method described in Formulation Example 1 was diluted to a concentration of 100 or 20 ppm. Sweet-potato leaves were immersed in the dilution for 10 seconds, air-dried and placed in a plastic cup having a diameter of 10 cm. Then second-instar larvae of tobacco cutworm were set free in the cup. The cup was allowed to stand still in a thermostat chamber maintained at 25° C. After 24 hours, the numbers of killed and living larvae were counted and the mortality was calculated. The obtained result was expressed by an average value obtained from the mortality calculated in three test cups.

[4] = sensitive female adults, 24 hours
[5] = 100 ppm, sensitive female adults, 24 hours

SMILES | LD50 at 168 h [1] [mg/kg] | mortality at 20 ppm [2, 4] [%] | mortality at 100 ppm [2, 5] [%] | mortality at 20 ppm [3] [%] | mortality at 100 ppm [3] [%] | mortality at 20 ppm (tobacco cutworm) [%] | mortality at 100 ppm (tobacco cutworm) [%] | mortality at 100 ppm ([2]; 24 h) [%]
C=C(C)c1ccc(C(C)(C)COCc2cccc(Oc3ccccc3)c2)cc1 [Compound 87, 3-Phenoxybenzyl 2-(4-isopropenylphenyl)-2-methylpropyl ether] | > 500 | – | – | – | – | – | – | –
Cc1cccc(Oc2cccc(COCC(C)(C)c3ccc(Cl)cc3)c2)c1 [Compound 26, 3-(3-Methylphenoxy)benzyl 2-(4-chlorophenyl)-2-methylpropyl ether] | > 500 | 60 | 100 | 85 | 100 | – | – | –
CC(C)(COCc1cccc(Oc2ccc(Br)cc2)c1)c1cccc(C(F)(F)F)c1 [Compound 42, 3-(4-Bromophenoxy)benzyl 2-(3-trifluoromethylphenyl)-2-methylpropyl ether] | > 500 | 95 | 100 | 100 | 100 | – | – | –
CC(C)c1ccc(C(C)(C)COCc2cccc(Oc3ccc(F)cc3)c2)cc1 [Compound 77, 3-(4-Fluorophenoxy)benzyl 2-(4-isopropylphenyl)-2-methylpropyl ether] | > 500 | 70 | 100 | 85 | 100 | – | – | –
COCOc1ccc(C(C)(C)COCc2cccc(Oc3ccccc3)c2)cc1 [Compound 83, 3-Phenoxybenzyl 2-(4-methoxymethoxyphenyl)-2-methylpropyl ether] | > 500 | – | – | – | – | 100 | 100 | –
CC(C)(COCc1cccc(Oc2ccccc2)c1)c1ccc(C(=O)OCC(F)(F)F)cc1 [Compound 106, 3-Phenoxybenzyl 2-[4-(2,2,2-trifluoroethoxycarbonyl)-phenyl]-2-methylpropylether] | > 500 | – | – | – | – | – | – | –
CC(C)(COCc1cccc(Oc2ccccc2)c1)c1ccc(F)c(Cl)c1 [Compound 75] | > 500 | – | – | – | – | 80 | 100 | –
CC(C)(COCc1cccc(Oc2ccccc2)c1)c1ccc(-c2ccccc2)cc1 [Compound 68, 3-Phenoxybenzyl 2-(4-biphenyl)-2-methylpropyl ether] | > 500 | 100 | 100 | 100 | 100 | – | – | –
CC=C(C)c1ccc(C(C)(C)COCc2cccc(Oc3ccccc3)c2)cc1 [Compound 111, 3-Phenoxybenzyl 2-[4-(2-buten-2-yl)phenyl]-2-methylpropyl ether] | > 500 | – | – | – | – | – | – | –
CC(C)(COCc1cccc(Oc2ccccc2)c1)c1ccc(Oc2ccccc2)cc1 [Compound 76, 3-Phenoxybenzyl 2-(4-phenoxyphenyl)-2-methylpropyl ether] | > 500 | – | – | – | – | 90 | 100 | –
COc1ccc(Oc2cccc(COCC(C)(C)c3ccc(Br)cc3)c2)cc1 [Compound 40, 3-(4-Methoxyphenoxy)benzyl 2-(4-bromophenyl)-2-methylpropyl ether] | > 500 | 50 | 100 | 70 | 100 | – | – | –
COc1ccc(C(C)(C)COCc2cccc(Oc3ccccc3)c2)cc1OC [Compound 88, 3-Phenoxybenzyl 2-(3,4-dimethoxyphenyl)-2-methylpropyl ether] | > 500 | 60 | 100 | 80 | 100 | – | – | –
CNC(=O)Oc1cccc(C)c1 [Comparative Compound (e), m-tolyl-N-methylcarbamate, reference compound] | 220 | – | – | – | – | – | – | 80
CC(C)(COCc1cccc(Oc2cccc(Cl)c2)c1)c1ccc(Cl)cc1 [Compound 10, 3-(3-Chlorophenoxy)benzyl 2-(4-chlorophenyl)-2-methylpropyl ether] | > 500 | 100 | 100 | 100 | 100 | – | – | –
CC(C)(COCc1cccc(Oc2ccccc2)c1)c1ccc(OC2CCCCC2)cc1 [Compound 72, 3-Phenoxybenzyl 2-(4-cyclohexyloxyphenyl)-2-methylpropyl ether] | > 500 | 65 | 100 | 80 | 100 | – | – | –
COc1ccc(C(C)(C)COCc2cccc(Oc3ccc(F)cc3)c2)cc1 [Compound 32, 3-(4-Fluorophenoxy)benzyl 2-(4-methoxyphenyl)-2-methylpropyl ether] | > 500 | 100 | 100 | 100 | 100 | – | – | –
COCc1ccc(C(C)(C)COCc2cccc(Oc3ccccc3)c2)cc1 [Compound 80, 3-Phenoxybenzyl 2-(4-methoxymethylphenyl)-2-methylpropyl ether] | > 500 | – | – | – | – | – | – | –
CC(C)(COCc1cccc(Oc2ccccc2)c1)c1ccc(OC(Cl)=C(Cl)Cl)cc1 [Compound 92, 3-Phenoxybenzyl 2-[(1,2,2-trichlorovinyloxy)phenyl]-2-methylpropyl ether] | > 500 | – | – | – | – | 90 | 100 | –
C=C(CC)c1ccc(C(C)(C)COCc2cccc(Oc3ccccc3)c2)cc1 [Compound 110, 3-Phenoxybenzyl 2-[4-(1-buten-2-yl)phenyl]-2-methylpropyl ether] | > 500 | – | – | – | – | – | – | –
C=C(Cl)c1ccc(C(C)(C)COCc2cccc(Oc3ccccc3)c2)cc1 [Compound 102, 3-Phenoxybenzyl 2-[4-(1-chlorovinyl)phenyl]-2-methylpropyl ether] | > 500 | – | – | – | – | – | – | –
CCOCCOc1ccc(C(C)(C)COCc2cccc(Oc3ccccc3)c2)cc1 [Compound 89, 3-Phenoxybenzyl 2-[4-(2-ethoxyethoxy)phenyl]-2-methylpropyl ether] | > 500 | – | – | – | – | – | – | –
COc1ccc(Oc2cccc(COCC(C)(C)c3ccc(Cl)cc3)c2)cc1 [Compound 34, 3-(4-Methoxyphenoxy)benzyl 2-(4-chlorophenyl)-2-methylpropyl ether] | > 500 | 90 | 100 | 100 | 100 | – | – | –
CCOCOc1ccc(C(C)(C)COCc2cccc(Oc3ccccc3)c2)cc1 [Compound 81, 3-Phenoxybenzyl 2-(4-ethoxymethoxyphenyl)-2-methylpropyl ether] | > 500 | – | – | – | – | 90 | 100 | –
CC(C)c1ccc(C(C)(C)COCc2cccc(Oc3ccccc3)c2)cc1 [Compound 63, 3-Phenoxybenzyl 2-(4-isopropylphenyl)-2-methylpropyl ether] | > 500 | 95 | 100 | 100 | 100 | – | – | –
COc1ccc(Oc2cccc(COCC(C)(C)c3ccc(OC)cc3)c2)cc1 [Compound 27, 3-(4-Methoxyphenoxy)benzyl 2-(4-methoxyphenyl)-2-methylpropyl ether] | > 500 | 50 | 100 | 70 | 100 | – | – | –
CC(C)=Cc1ccc(C(C)(C)COCc2cccc(Oc3ccccc3)c2)cc1 [Compound 91, 3-Phenoxybenzyl 2-[4-(2-methyl-1-propenyl)phenyl]-2-methylpropyl ether] | > 500 | 100 | 100 | 100 | 100 | – | – | –
CC(C)(COCc1cccc(Oc2ccc(F)cc2)c1)c1ccccc1 [Compound 28, 3-(4-Fluorophenoxy)benzyl 2-phenyl-2-methylpropyl ether] | > 500 | 75 | 100 | 90 | 100 | – | – | –
Cc1cccc(C(C)(C)COCc2cccc(Oc3ccc(F)cc3)c2)c1 [Compound 36, 3-(4-Fluorophenoxy)benzyl 2-(3-methylphenyl)-2-methylpropyl ether] | > 500 | 70 | 95 | 90 | 100 | – | – | –
COc1ccc(Oc2cccc(COCC(C)(C)c3ccc(C)cc3)c2)cc1 [Compound 44, 3-(4-methoxyphenoxy)benzyl 2-(4-methylphenyl)-2-methylpropylether] | > 500 | 80 | 100 | 95 | 100 | – | – | –
